Test results: the supplement of paper PMC10307832

Tests used:
Assay in all cases: relative viability (nuclei count vs DMSO), 5 days (fraction); higher = more cells survive
[1] = compound: C1CN(CCN1)C2=CC=C(C=C2)C3=CN4C(=C(C=N4)C5=CC=NC6=CC=CC=C56)N=C3 [DM3189] + CC(=O)c1c(C)c2cnc(Nc3ccc(N4CCNCC4)cn3)nc2n(C2CCCC2)c1=O [Palbociclib] (partner 0.5 µM)
In short: (§1)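 A single step with final 0.05% Triton X-100, 1% formaldehyde and 1 ug/ml Hoechst fixed the cells and stained nuclei 5 days after treatment. Lung cancer cell lines in 1536-well plates had been treated by pin tool the day after seeding with one drug alone or a fixed anchor-drug dose plus five library-drug doses (not always all listed) in √10 steps, and nuclei were counted on 4× images. Relative viability is the ratio of nuclei in treated wells to nuclei in vehicle wells, taken as the median of duplicate plates.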

[2] = compound: C1CN(CCN1)C2=CC=C(C=C2)C3=CN4C(=C(C=N4)C5=CC=NC6=CC=CC=C56)N=C3 [DM3189] + CS(=O)(=O)CCNCc1ccc(-c2ccc3ncnc(Nc4ccc(OCc5cccc(F)c5)c(Cl)c4)c3c2)o1 [Lapatinib] (partner 2 µM)
In short: as §1

[3] = compound: C1CN(CCN1)C2=CC=C(C=C2)C3=CN4C(=C(C=N4)C5=CC=NC6=CC=CC=C56)N=C3 [DM3189] + N=C(N)NC(=N)NCCc1ccccc1 [Phenformin] (partner 250 µM)
In short: as §1

[4] = compound: C1CN(CCN1)C2=CC=C(C=C2)C3=CN4C(=C(C=N4)C5=CC=NC6=CC=CC=C56)N=C3 [DM3189] + Nc1nc2[nH]cc(CCc3ccc(C(=O)N[C@@H](CCC(=O)O)C(=O)O)cc3)c2c(=O)[nH]1 [Pemetrexed] (partner 0.2 µM)
In short: as §1

[5] = compound: C1CN(CCN1)C2=CC=C(C=C2)C3=CN4C(=C(C=N4)C5=CC=NC6=CC=CC=C56)N=C3 [DM3189] + O=C(c1cc(Cc2n[nH]c(=O)c3ccccc23)ccc1F)N1CCN(C(=O)C2CC2)CC1 [Olaparib] (partner 8 µM)
In short: as §1

Cell Line	relative viability ([1]; first compound 0.08 µM)	relative viability ([1]; first compound 0.253 µM)	relative viability ([1]; first compound 0.8 µM)	relative viability ([2]; first compound 0.08 µM)	relative viability ([2]; first compound 0.253 µM)	relative viability ([2]; first compound 0.8 µM)	relative viability ([2]; first compound 2.53 µM)	relative viability ([3]; first compound 0.08 µM)	relative viability ([3]; first compound 0.253 µM)	relative viability ([3]; first compound 0.8 µM)	relative viability ([3]; first compound 2.53 µM)	relative viability ([4]; first compound 0.08 µM)	relative viability ([4]; first compound 0.253 µM)	relative viability ([4]; first compound 0.8 µM)	relative viability ([5]; first compound 0.08 µM)	relative viability ([5]; first compound 0.253 µM)	relative viability ([5]; first compound 0.8 µM)	relative viability ([1]; first compound 2.53 µM)	relative viability ([4]; first compound 2.53 µM)	relative viability ([5]; first compound 2.53 µM)
NCI-H1666	0.553	0.637	0.656	0.789	0.736	0.51	0.712	0.629	0.545	0.549	0.592	1	0.818	0.844	0.714	0.682	0.691	–	–	–
NCI-H1734	0.34	0.344	0.283	1.07	0.987	0.961	0.939	0.344	0.381	0.37	0.332	0.438	0.4	0.353	0.61	0.588	0.563	0.294	0.352	0.63
NCI-H1755	0.467	0.431	0.403	1.07	0.937	0.811	0.936	0.698	0.589	0.511	0.566	0.418	0.555	0.502	0.821	0.831	0.717	0.396	0.395	0.922
NCI-H1792	0.569	0.675	0.716	0.973	0.919	0.674	0.431	0.275	0.267	–	0.458	0.986	0.98	0.645	0.647	0.354	0.404	0.609	0.616	0.38
NCI-H1793	0.414	0.432	0.448	0.653	0.773	1.01	0.711	0.397	0.412	0.415	0.344	1.03	1.18	1.1	0.998	0.943	0.702	0.451	1.47	1.15
NCI-H1915	0.506	0.47	0.437	1	0.867	0.705	0.737	0.392	0.361	0.355	0.301	0.468	0.471	0.454	0.264	0.253	0.222	0.481	0.448	0.231
NCI-H1944	0.351	0.327	0.288	0.884	0.765	–	0.803	0.237	0.192	–	0.192	0.661	0.603	0.603	0.385	0.405	0.35	0.301	0.675	0.378
NCI-H1975	0.697	0.57	0.379	1.15	0.952	0.725	0.764	0.455	0.38	0.4	0.329	0.27	0.281	0.266	0.952	0.777	0.646	0.333	0.278	0.639
NCI-H1993	0.779	0.809	0.571	–	0.533	0.722	0.746	0.473	0.481	0.527	0.566	0.622	0.626	0.545	1.05	1.13	1.02	0.736	0.541	1.13
NCI-H2009	0.264	0.195	0.184	1.13	0.888	0.684	0.916	0.526	0.471	0.438	0.445	1.07	0.988	0.985	0.894	0.645	0.638	0.217	1	0.689
NCI-H2023	0.38	0.396	0.4	1.1	0.739	0.503	0.286	0.368	0.363	0.428	0.347	0.235	0.231	0.236	0.486	0.432	0.515	0.336	0.178	0.333
NCI-H2085	0.47	0.457	0.468	0.806	0.77	0.765	0.848	0.722	0.72	0.633	0.75	0.885	0.886	0.941	0.735	0.804	0.804	0.537	0.869	0.883
NCI-H2087	0.212	0.197	0.224	1.27	0.871	0.846	1.06	0.457	0.495	0.437	0.418	0.724	0.659	0.67	0.511	0.563	0.505	0.238	0.573	0.316
NCI-H2126	0.346	0.348	0.367	0.869	0.775	0.673	0.732	0.576	0.529	0.483	0.522	0.717	0.624	0.565	0.99	0.89	0.896	0.374	0.652	0.991
NCI-H2170	0.484	0.363	0.368	0.277	0.256	0.256	0.268	0.435	0.367	0.361	0.397	0.282	0.276	0.373	0.607	0.69	0.534	0.347	0.248	0.469
NCI-H2228	1.09	0.75	0.472	1.51	1.08	0.865	0.263	0.368	0.344	0.29	0.189	0.365	0.315	0.361	0.88	0.669	0.492	0.307	0.226	0.51
